Earlier results, collected in patent US5393873A, “Peptides with anticoagulant activity” (BASF Aktiengesellschaft, priority 1991, dated 1995).

Biological target: thrombin (Homo sapiens, UniProt P00734)

Val-Val-Tyr-Thr-Asp-Cys-Thr-Glu-Ser-Gly-Gln-Asn-Leu-Cys-Leu-Cys-Glu-Gly-Ser-Asn-Val-Cys-Gly-Gln-Gly-Asn-Lys-Cys-Ile-Leu-Gly-Ser-Asp-Gly-Glu-Lys-Asn-Gly-Cys-Val-Thr-Gly-Glu-Gly-Thr-Pro-Lys-Pro-Gln-Ser-His-Asn-Asp-Gly-Asp-Phe-Glu-Glu-Ile-Pro-Glu-Glu-Tyr(SO3 H)-Leu-Gln [Hirudin]
binding to thrombin: very strongly
